Measured values: ChEMBL document CHEMBL6115030, “Systematic All-Hydrocarbon Stapling Analysis for Cecropin A Generates a Potent and Stable Antimicrobial Peptide” (J Med Chem, 2025)
In brackets after ≈: the same amount, converted by molar mass. Activity calls are given as the source filed them. No cut-off for these calls is given here. Bridge positions count the residues as written; N and C are the ends. Square brackets hold non-standard residues; d marks the D form. Peptide text beside a SMILES is read from it. S5 = C=CCCC[C@](C)(N)C(=O)O

Legend:
Mus musculus [1] = assay: In vivo anti-inflammatory efficacy in Escherichia coli intraperitoneally injected into C57BL/6 mouse peritonitis model assessed as reduction in IL-6 level in blood at 2.5 mg/kg, ip measured after 48 hrs by ELISA; assay type: functional, organism-based
Mus musculus [2] = assay: In vivo anti-inflammatory efficacy in Escherichia coli intraperitoneally injected into C57BL/6 mouse peritonitis model assessed as reduction in TNF-alpha level in blood at 2.5 mg/kg, ip measured after 48 hrs by ELISA; assay type: functional, organism-based
Escherichia coli [3] = assay: Induction of multiple envelope stress pathway related pathways in Escherichia coli assessed as change in WcaL gene expression at 12.5 uM measured after 2 hrs incubation by PCR analysis; assay type: functional, organism-based
Escherichia coli [4] = assay: In vivo antibacterial activity against Escherichia coli intraperitoneally injected into C57BL/6 mouse peritonitis model assessed as reduction in bacterial load in lung at 2.5 mg/kg, ip measured after 48 hrs relative to control; assay type: functional, organism-based
[5] = Toxicity in C57BL/6 female mouse assessed as apparent inflammatory exudates ([…], neutrophiles, macrophages) in lungs at 25 mg/kg, ip measured during 14 days of study by H and E staining based analysis; assay type: organism-based; details: in vivo, 336 h, time 14 day
[6] = Stability of the compound in human serum assessed as retention time by RP-HPLC analysis; assay type: ADME, cell-free
Escherichia coli [7] = assay: Induction of outer membrane synthesis related pathways in Escherichia coli assessed as change in OmpG gene expression at 12.5 uM measured after 2 hrs incubation by PCR analysis; assay type: functional, organism-based
Staphylococcus aureus = assay: Antibacterial activity against Staphylococcus aureus ATCC 25923 assessed as inhibition of bacterial growth measured after 24 hrs by broth microdilution method; assay type: functional
Escherichia coli [8] = assay: Induction of LPS transport pathway related genes in Escherichia coli assessed as change in LptA gene expression at 12.5 uM measured after 2 hrs incubation by PCR analysis; assay type: functional, organism-based
Escherichia coli [9] = assay: Induction of assembly related pathways in Escherichia coli assessed as change in OmpW gene expression at 12.5 uM measured after 2 hrs incubation by PCR analysis; assay type: functional, organism-based
Escherichia coli [10] = assay: Induction of assembly related pathways in Escherichia coli assessed as change in BamB gene expression at 12.5 uM measured after 2 hrs incubation by PCR analysis; assay type: functional, organism-based
Escherichia coli [11] = assay: Antibacterial activity against Escherichia coli assessed as reduction in CFU at 5 uM measured upto 60 mins by Time-killing assay; assay type: functional, organism-based
Escherichia coli [12] = assay: In vivo antibacterial activity against Escherichia coli intraperitoneally injected into C57BL/6 mouse peritonitis model assessed as reduction in bacterial load in kidney at 2.5 mg/kg, ip measured after 48 hrs relative to control; assay type: functional, organism-based
[13] = Toxicity in C57BL/6 female mouse assessed as haemorrhagic point and blurred white pulp boundary in spleen at 25 mg/kg, ip measured during 14 days of study by H and E staining based analysis; assay type: organism-based; details: in vivo, 336 h, time 14 day
[14] = Hemolytic activity in human RBC assessed as hemolysis incubated for 1 hr by microplate reader; assay type: toxicity, cell-based, Erythrocyte; details: erythrocyte, 1 h

CC[C@H](C)[C@H](NC(=O)CNC(=O)[C@H](CC(=O)O)NC(=O)[C@H](CCCNC(=N)N)NC(=O)[C@@H](NC(=O)[C@H](CC(N)=O)NC(=O)[C@H](CCC(N)=O)NC(=O)CNC(=O)[C@@H](NC(=O)[C@H](CCCCN)NC(=O)[C@H](CCC(=O)O)NC(=O)[C@@H](NC(=O)[C@H](CCCCN)NC(=O)[C@H](CCCCN)NC(=O)[C@H](Cc1ccccc1)NC(=O)[C@H](CC(C)C)NC(=O)[C@H](CCCCN)NC(=O)[C@H](Cc1c[nH]c2ccccc12)NC(=O)[C@H](CCCCN)NC(C)=O)[C@@H](C)CC)C(C)C)[C@@H](C)CC)C(=O)N[C@H](C(=O)N[C@@H](CCCCN)C(=O)N[C@@H](C)C(=O)NCC(=O)N1CCC[C@H]1C(=O)N[C@@H](C)C(=O)N[C@H](C(=O)N[C@@H](C)C(=O)N[C@H](C(=O)N[C@H](C(=O)NCC(=O)N[C@@H](CCC(N)=O)C(=O)N[C@@H](C)C(=O)N[C@@]1(C)CCC/C=C\CCC[C@@](C)(C(N)=O)NC(=O)[C@H](C)NC(=O)[C@H]([C@@H](C)CC)NC(=O)[C@H](CCC(N)=O)NC1=O)C(C)C)C(C)C)C(C)C)[C@@H](C)CC (Ac-KWKLFKKIEKVGQNIRDGIIKAGPAVAVVGQA[S5]QIA[S5]-NH2; staple (Z) 33-37)
Activity (Mus musculus [1]): Active | Activity (Mus musculus [2]): Active | Activity (Escherichia coli [3]): Active | Activity (Escherichia coli [4]): Active; Compound Showed Enhanced Bacterial Elimination Than Cec-0 | Activity [5]: Non-toxic | Retention_time [6]: 25.17 min | Activity (Escherichia coli [7]): Active | MIC (Staphylococcus aureus): 3.13 µM (≈ 12.7 µg/mL) | Activity (Escherichia coli [8]): Active | Activity (Escherichia coli [9]): Active | Activity (Escherichia coli [10]): Active | Activity (Escherichia coli [11]): Active | Activity (Escherichia coli [12]): Active; Compound Showed Enhanced Bacterial Elimination Than Cec-0 And Compound Showed Comparable Bacterial Elimination To Polymyxin B | Activity [13]: Non-toxic | Activity [14]: Non-toxic
